Data reported in patent publication US8722644B2, “Mixture of hyaluronic acid for treating and preventing peptic ulcer and duodenal ulcer” (Holy Stone Healthcare Co., Ltd., priority 2010, dated 2014).

Tested on: rats that had Aspirin induced gastrointestinal ulcers
Experiment: Treatment effects of PU98 on rats that had Aspirin induced gastrointestinal ulcers
Assay type: in vivo
Conditions: 200 mg Aspirin intraperitoneal day 1 to day 3 after fasting; thirty rats; internal abdominal bleeding upon dissection
From the text: PU98 (composition of binary molecular weight of HA that are 70% HA with an average Mw of 2000 KDa and 30% HA with an average Mw of 1000 KDa in PBS solution, the final concentration is 0.5%; i.e. 0.5 g HA in 100 c.c. PBS solution).
Thirty eight-weeks-old SPF Sprague-Dawley male rats (BioLASCO Taiwan Co., Ltd.), were divided into 3 groups: study group (Aspirin/PU98), placebo group (Aspirin/PBS), control group (PBS), each group consisting of 10 rats with 2 rats housed per cage at the Animal Technology Institute Taiwan rodents room.
Before animal experimentation, rats were first fasted for 24 hours or more. From day one (D1) of experimentation to day three (D3), rats were given 1 ml of Aspirin (200 mg/ml) through intraperitoneal administration.
From day 4 to day 18, rats of the study group were given 1 ml of Aspirin (100 mg/ml) daily through intraperitoneal administration, they were also fed a 2 ml dosage of PU98 once every morning and afternoon.
From day 4 to day 18, rats of the placebo group were given 1 ml of Aspirin (100 mg/ml) daily through intraperitoneal administration, however they were fed a 2 ml dosage of PBS (placebo) once every morning and afternoon. […]
The present invention was analyzed by “student t test” to evaluate relationship between the study group, placebo group and control group.

CC(=O)Oc1ccccc1C(=O)O [Aspirin]
rats died on day 4 after Aspirin induction: 11
